Experimental data taken from paper PMC6470840 (International Journal of Molecular Sciences, 2019).
Entries after “also recorded” stand apart in the source; their conditions may differ.

Legend:
[1] = simulated gastric fluid (SGF), pH 1.2, prepared in accordance with the US Pharmacopeia; conditions: 37 °C, up to 120 min
human plasma = conditions: 37 °C, up to seven days
[2] = simulated intestinal fluid (SIF), pH 6.8 ± 0.1, prepared in accordance with the US Pharmacopeia; conditions: 37 °C, up to 120 min
[3] = blood samples of rats after intravenous injection or intragastric administration; conditions: male Wistar rats, up to 12 h
T2DM mice [4] = assay: T2DM mouse model: liver histology (H&E); type: in vivo, C57BL/6J mice; conditions: DhHP-6 60 mg/kg or metformin 250 mg/kg oral, four weeks
Experimental: (§1) At the end of the experiment, the liver and pancreas islets were immediately removed after the mice were sacrificed. The left lobe of the liver was stored at −80 °C and the right lobe of the liver was fixed in 4% paraformaldehyde (Solarbio & Technology Co., Ltd., Beijing, China). After dehydration in a gradient of ethanol concentrations, tissues were paraffin embedded and cut into 5 μm thick sections. Slices were stained with hematoxylin and eosin (H&E) dyes, and sections were mounted in neutral deparaffinized xylene medium for microscopic examination using an Olympus BX53 fluorescence microscope (Olympus, Tokyo, Japan).

T2DM mice [5] = assay: T2DM mouse model: pancreas islet histology (H&E); type: in vivo, C57BL/6J mice; conditions: DhHP-6 60 mg/kg or metformin 250 mg/kg oral, four weeks
Experimental: as §1

T2DM rats = system: T2DM rats; set-up: method as in PMID 24946264; conditions: injected (intraperitoneal injection); cited from earlier work
Source text: DhHP-6 (Deuterohemin-βAla-His-Thr-Val-Glu-Lys) was designed based on the microperoxidase-11 (MP-11), generated through […]. […] When ...

[6] = Experimental: As a peroxidase mimetic, the enzymatic potency of the digestion products of DhHP-6 were assessed using the H2O2–Vitamin C (Vc) double-substrate method. Digestion products of DhHP-6 were diluted to 10 μM. Samples containing no enzyme were used as a control. The reaction system consisted of phosphate buffer solution (PBS) (50 mM, pH 7.4), H2O2 (1 mM), Vc ([…]), and 10 μM DhHP-6. All samples were assayed at 25 °C. The decrease in the absorbance at 290 nm was measured for 30 s by UV–Vis spectrophotometer (Shimadzu, Kyoto, Japan), and measurements were performed prior to the addition of the digestion products and set as 100% relative enzymatic activity.

For Deuterohemin-βAla-His-Thr-Val-Glu-Lys, the fragment found [1] was “DhHP-5 (Deuterohemin-βAla-His-Thr-Val-Glu), major”, the fragment found (human plasma) was “DhHP-3 (Deuterohemin-βAla-His-Thr), major” and the fragment found [2] was “DhHP-5; also recorded: DhHP-2 (Deuterohemin-βAla-His)”. The fragment found [3] was “DhHP-3, major”.
In the case of CN(C)C(=N)N=C(N)N [metformin, reference compound], the “liver histology, high dose / metformin” value (T2DM mice [4]) is reported as “lower levels of steatosis were evident and the liver cells became more regular than T2DM mice” and the “pancreas islet histology, high dose / metformin” value (T2DM mice [5]) is reported as “the islets and vacuolar degeneration improved”.
For “deuterohemin-Ala-His-Lys [DhHP-3 (deuterohemin-Ala-His-Lys)]”, the “symptoms of T2DM rats” value (T2DM rats) is listed as “improves the symptoms of T2DM rats”.
With Deuterohemin-βAla-His-Thr [DhHP-3] the “relative enzyme activity of the plasma degradation product” value [6] was “retained the relative enzyme activity of DhHP-6”.
